From PubChem BioAssay AID1259407 (Chemical Carcinogenesis Research Information System (CCRIS), 2018)
The source made the active and inactive calls. How the calls were made is not given here.

System: CCRIS mutagenicity, Ames/micronucleus/aberration tests
Assay: CCRIS mutagenicity studies
[1] = Test System: AMES SALMONELLA TYPHIMURIUM, Strain/Indicator: TA98, Metabolic Activation: NONE, Method: STANDARD PLATE
[2] = Test System: AMES SALMONELLA TYPHIMURIUM, Strain/Indicator: TA98, Metabolic Activation: RAT, LIVER, S-9, AROCLOR 1254, Method: STANDARD PLATE
[3] = Test System: AMES SALMONELLA TYPHIMURIUM, Strain/Indicator: TA100, Metabolic Activation: NONE, Method: STANDARD PLATE
[4] = Test System: AMES SALMONELLA TYPHIMURIUM, Strain/Indicator: TA100, Metabolic Activation: RAT, LIVER, S-9, AROCLOR 1254, Method: STANDARD PLATE
[5] = Test System: AMES SALMONELLA TYPHIMURIUM, Strain/Indicator: TA1537, Metabolic Activation: NONE, Method: STANDARD PLATE
[6] = Test System: MOUSE LYMPHOMA, Strain/Indicator: L5178Y (TK+/TK-), Metabolic Activation: NONE, Method: SUSPENSION/PLATE
[7] = Test System: MOUSE LYMPHOMA, Strain/Indicator: L5178Y (TK+/TK-), Metabolic Activation: RAT, LIVER, S-9, AROCLOR 1254, Method: SUSPENSION/PLATE
[8] = Test System: AMES SALMONELLA TYPHIMURIUM, Strain/Indicator: TA98, Metabolic Activation: NONE, Method: PREINCUBATION
[9] = Test System: AMES SALMONELLA TYPHIMURIUM, Strain/Indicator: TA100, Metabolic Activation: NONE, Method: PREINCUBATION
[10] = Test System: AMES SALMONELLA TYPHIMURIUM, Strain/Indicator: TA98, Metabolic Activation: RAT, LIVER, S-9, AROCLOR 1254, Method: PREINCUBATION
[11] = Test System: AMES SALMONELLA TYPHIMURIUM, Strain/Indicator: TA100, Metabolic Activation: RAT, LIVER, S-9, AROCLOR 1254, Method: PREINCUBATION

CC(C)C[C@H]1C(=O)N2CCC[C@H]2[C@]2(O)O[C@](NC(=O)[C@@H]3C[C@@H]4c5cccc6[nH]cc(c56)C[C@H]4N(C)C3)(C(C)C)C(=O)N12
mutagenic call [1]: inactive; negative | mutagenic call [2]: inactive; negative | mutagenic call [3]: inactive; negative | mutagenic call [4]: inactive; negative | mutagenic call (Test System: AMES SALMONELLA TYPHIMURIUM, Strain/Indicator: TA1535, Metabolic Activation: NONE, Method: STANDARD PLATE): inactive; negative | mutagenic call (Test System: AMES SALMONELLA TYPHIMURIUM, Strain/Indicator: TA1535, Metabolic Activation: RAT, LIVER, S-9, AROCLOR 1254, Method: STANDARD PLATE): inactive; negative | mutagenic call [5]: inactive; negative | mutagenic call (Test System: AMES SALMONELLA TYPHIMURIUM, Strain/Indicator: TA1537, Metabolic Activation: RAT, LIVER, S-9, AROCLOR 1254, Method: STANDARD PLATE): inactive; negative | mutagenic call (Test System: AMES SALMONELLA TYPHIMURIUM, Strain/Indicator: TA1538, Metabolic Activation: NONE, Method: STANDARD PLATE): inactive; negative | mutagenic call (Test System: AMES SALMONELLA TYPHIMURIUM, Strain/Indicator: TA1538, Metabolic Activation: RAT, LIVER, S-9, AROCLOR 1254, Method: STANDARD PLATE): inactive; negative | mutagenic call [6]: inactive; negative | mutagenic call [7]: inactive; negative | mutagenic call (Test System: UDS RAT HEPATOCYTES, Strain/Indicator: THY INCORP, Metabolic Activation: NONE): inactive; negative

Clc1nncc2cccnc12
mutagenic call [8]: inactive; negative | mutagenic call (Test System: AMES SALMONELLA TYPHIMURIUM, Strain/Indicator: TA98, Metabolic Activation: RAT, LIVER, S-9, PCB, Method: PREINCUBATION): active; positive | mutagenic call [9]: inactive; negative | mutagenic call (Test System: AMES SALMONELLA TYPHIMURIUM, Strain/Indicator: TA100, Metabolic Activation: RAT, LIVER, S-9, PCB, Method: PREINCUBATION): active; positive

CN(C)C(=O)/C=C/c1ccc([N+](=O)[O-])o1
mutagenic call [8]: active; positive

CC(=O)Nc1ccc(N)cc1
mutagenic call (Test System: AMES SALMONELLA TYPHIMURIUM, Strain/Indicator: TA97, Metabolic Activation: HAMSTER, LIVER, S-9, AROCLOR 1254 (10%), Method: PREINCUBATION): inactive; negative | mutagenic call (Test System: AMES SALMONELLA TYPHIMURIUM, Strain/Indicator: TA97, Metabolic Activation: NONE, Method: PREINCUBATION): inactive; negative | mutagenic call (Test System: AMES SALMONELLA TYPHIMURIUM, Strain/Indicator: TA97, Metabolic Activation: RAT, LIVER, S-9, AROCLOR 1254 (10%), Method: PREINCUBATION): inactive; negative | mutagenic call (Test System: AMES SALMONELLA TYPHIMURIUM, Strain/Indicator: TA98, Metabolic Activation: HAMSTER, LIVER, S-9, AROCLOR 1254 (10%), Method: PREINCUBATION): active; positive | mutagenic call [8]: inactive; negative | mutagenic call (Test System: AMES SALMONELLA TYPHIMURIUM, Strain/Indicator: TA98, Metabolic Activation: RAT, LIVER, S-9, AROCLOR 1254 (10%), Method: PREINCUBATION): active; positive | mutagenic call (Test System: AMES SALMONELLA TYPHIMURIUM, Strain/Indicator: TA100, Metabolic Activation: HAMSTER, LIVER, S-9, AROCLOR 1254 (10%), Method: PREINCUBATION): inactive; negative | mutagenic call [9]: inactive; negative | mutagenic call (Test System: AMES SALMONELLA TYPHIMURIUM, Strain/Indicator: TA100, Metabolic Activation: RAT, LIVER, S-9, AROCLOR 1254 (10%), Method: PREINCUBATION): inactive; negative | mutagenic call (Test System: AMES SALMONELLA TYPHIMURIUM, Strain/Indicator: TA1535, Metabolic Activation: HAMSTER, LIVER, S-9, AROCLOR 1254 (10%), Method: PREINCUBATION): inactive; negative | mutagenic call (Test System: AMES SALMONELLA TYPHIMURIUM, Strain/Indicator: TA1535, Metabolic Activation: NONE, Method: PREINCUBATION): inactive; negative | mutagenic call (Test System: AMES SALMONELLA TYPHIMURIUM, Strain/Indicator: TA1535, Metabolic Activation: RAT, LIVER, S-9, AROCLOR 1254 (10%), Method: PREINCUBATION): inactive; negative | mutagenic call (Test System: Ames Salmonella typhimurium, Strain/Indicator: TA98, Metabolic Activation: None, Method: Standard Plate): inactive; negative | mutagenic call (Test System: Ames Salmonella typhimurium, Strain/Indicator: TA100, Metabolic Activation: None, Method: Standard Plate): inactive; negative | mutagenic call (Test System: Ames Salmonella typhimurium, Strain/Indicator: TA102, Metabolic Activation: None, Method: Standard Plate): inactive; negative | mutagenic call (Test System: Ames Salmonella typhimurium, Strain/Indicator: TA1535, Metabolic Activation: None, Method: Standard Plate): inactive; negative | mutagenic call (Test System: Ames Salmonella typhimurium, Strain/Indicator: TA1537, Metabolic Activation: None, Method: Standard Plate): inactive; negative | mutagenic call (Test System: UDS RODENT HEPATOCYTES, Strain/Indicator: THY INCORP (NON-S-PHASE), Metabolic Activation: NONE, Method: AUTORADIOGRAPHY): inactive; negative

Cc1cc(O)c2c(c1)C(=O)c1c(O)c(O)cc(O)c1C2=O
mutagenic call [5]: inactive; negative | mutagenic call (Test System: AMES SALMONELLA TYPHIMURIUM, Strain/Indicator: TA1537, Metabolic Activation: RAT, LIVER, S-9, PCB, Method: STANDARD PLATE): active; positive

O.O.O=N[O-].O=N[O-].O=N[O-].O=N[O-].[K+].[K+].[Pt]
mutagenic call [8]: inactive; negative | mutagenic call [10]: inactive; negative | mutagenic call [9]: inactive; negative | mutagenic call [11]: inactive; negative

N[C@@H](CCC(=O)NNc1ccccc1)C(=O)O
mutagenic call [3]: inactive; negative | mutagenic call (Test System: AMES SALMONELLA TYPHIMURIUM, Strain/Indicator: TA100, Metabolic Activation: RAT KIDNEY, MICROSOMES, Method: STANDARD PLATE): active; positive | mutagenic call (Test System: AMES SALMONELLA TYPHIMURIUM, Strain/Indicator: TA100, Metabolic Activation: RAT LIVER, MICROSOMES, Method: STANDARD PLATE): inactive; negative

C1CS1
mutagenic call (Test System: AMES SALMONELLA TYPHIMURIUM, Strain/Indicator: TA98, Metabolic Activation: HAMSTER, LIVER, S-9, AROCLOR 1254, Method: PREINCUBATION): inactive; negative | mutagenic call [8]: inactive; negative | mutagenic call [10]: inactive; negative | mutagenic call (Test System: AMES SALMONELLA TYPHIMURIUM, Strain/Indicator: TA100, Metabolic Activation: HAMSTER, LIVER, S-9, AROCLOR 1254, Method: PREINCUBATION): active; positive | mutagenic call [9]: active; positive | mutagenic call [11]: active; positive | mutagenic call [6]: active; positive. reevaluation of results: positive | mutagenic call [7]: active; positive. reevaluation of results: positive

O=C(CBr)NCc1ccccc1
mutagenic call (Test System: AMES SALMONELLA TYPHIMURIUM, Strain/Indicator: TA100, Metabolic Activation: MOUSE, LIVER, S-9, AROCLOR 1254, Method: STANDARD PLATE): active; positive | mutagenic call [3]: inactive; negative

c1ccc2c(c1)-c1cccc3cc4ccccc4c-2c13
mutagenic call [1]: inactive; negative | mutagenic call [2]: inactive; negative | mutagenic call [4]: active; positive
